From patent US10681909B2, “Herbicidal triazoles” (FMC Corporation, priority 2014, dated 2020)

Tests used:
Conditions in all cases: scale 0 to 100
[1] = test system: field bindweed; experiment: Test E postemergence; assay type: in vivo, Convolvulus arvensis
Description: (§1) Seeds of plant species selected from corn (Zea mays), soybean (Glycine max), lambsquarters (Chenopodium album), poinsettia, wild (wild poinsettia, Euphorbia heterophylla), pigweed, palmer (palmer pigweed, Amaranthus palmeri), waterhemp (common waterhemp, Amaranthus rudis), surinam grass (Brachiaria decumbens), crabgrass, large (large crabgrass, Digitaria sanguinalis), crabgrass, Brazilian (Brazilian crabgrass, Digitaria horizontalis), panicum, fall (fall panicum, Panicum dichotomiflorum), foxtail, giant (giant foxtail, Setaria faberii), foxtail, green (green foxtail, Setaria viridis), goosegrass (Eleusine indica), johnsongrass (Sorghum halepense), ragweed (common ragweed, Ambrosia elatior), barnyardgrass (Echinochloa crus-galli), sandbur (southern sandbur, Cenchrus echinatus), arrowleaf sida (Sida rhombifolia), ryegrass, Italian (Italian ryegrass, Lolium multiflorum), dayflower, VA (Virginia dayflower, Commelina virginica), field bindweed (Convolvulus arvensis), cocklebur (common cocklebur, Xanthium strumarium), morningglory (Ipomoea coccinea), nightshade (eastern black nightshade, Solanum ptycanthum), kochia (Kochia scoparia), nutsedge, yellow (yellow nutsedge, Cyperus esculentus), smartweed (ladysthumb smartweed, Polygonum persicaria), velvetleaf (Abutilon theophrasti), horseweed (Conyza canadensis), and beggarticks (hairy beggarticks, Bidens pilosa), were planted into a silt loam soil and treated preemergence with test chemicals formulated in a non-phytotoxic solvent mixture which included a surfactant.
(§2) At the same time, plants from these crop and weed species and also waterhemp_RES1, (ALS & Triazine resistant common waterhemp, Amaranthus rudis), and waterhemp_RES2, (ALS & HPPD resistant common waterhemp, Amaranthus rudis) were planted in pots containing Sunshine Redi-Earth® planting medium comprising spaghnum peat moss, vermiculite, starter nutrients and dolomitic limestone were treated with postemergence applications of test chemicals formulated in the same manner. Plants ranged in height from 2 to 18 cm for postemergence treatments (1- to 4-leaf stage). Treated plants and controls were maintained in a greenhouse for 14 to 21 d, after which time all species were compared to controls and visually evaluated. Plant response ratings, summarized in Table E, are based on a scale of 0 to 100 where 0 is no effect and 100 is complete control. A dash (-) response means no test result.

[2] = test system: arrowleaf sida; experiment: Test E preemergence; assay type: in vivo, Sida rhombifolia
Description: as §1, §2

[3] = test system: pigweed, palmer; experiment: Test E preemergence; assay type: in vivo, Amaranthus palmeri
Description: as §1, §2

[4] = test system: corn; experiment: Test E postemergence; assay type: in vivo, Zea mays
Description: as §1, §2

[5] = test system: goosegrass; experiment: Test E preemergence; assay type: in vivo, Eleusine indica
Description: as §1, §2

[6] = test system: velvetleaf; experiment: Test E preemergence; assay type: in vivo, Abutilon theophrasti
Description: as §1, §2

[7] = test system: lambsquarters; experiment: Test E preemergence; assay type: in vivo, Chenopodium album
Description: as §1, §2

[8] = test system: waterhemp_RES2 (ALS & HPPD resistant common waterhemp); experiment: Test E postemergence; assay type: in vivo, Amaranthus rudis
Description: as §1, §2

[9] = test system: waterhemp; experiment: Test E postemergence; assay type: in vivo, Amaranthus rudis
Description: as §1, §2

[10] = test system: waterhemp_RES1 (ALS & Triazine resistant common waterhemp); experiment: Test E postemergence; assay type: in vivo, Amaranthus rudis
Description: as §1, §2

[11] = test system: johnsongrass; experiment: Test E preemergence; assay type: in vivo, Sorghum halepense
Description: as §1, §2

[12] = test system: panicum, fall; experiment: Test E postemergence; assay type: in vivo, Panicum dichotomiflorum
Description: as §1, §2

[13] = test system: arrowleaf sida; experiment: Test E postemergence; assay type: in vivo, Sida rhombifolia
Description: as §1, §2

[14] = test system: nightshade; experiment: Test E preemergence; assay type: in vivo, Solanum ptycanthum
Description: as §1, §2

[15] = test system: beggarticks; experiment: Test E postemergence; assay type: in vivo, Bidens pilosa
Description: as §1, §2

[16] = test system: sandbur; experiment: Test E postemergence; assay type: in vivo, Cenchrus echinatus
Description: as §1, §2

[17] = test system: barnyardgrass; experiment: Test E postemergence; assay type: in vivo, Echinochloa crus-galli
Description: as §1, §2

[18] = test system: field bindweed; experiment: Test E preemergence; assay type: in vivo, Convolvulus arvensis
Description: as §1, §2

[19] = test system: barnyardgrass; experiment: Test E preemergence; assay type: in vivo, Echinochloa crus-galli
Description: as §1, §2

[20] = test system: soybean; experiment: Test E postemergence; assay type: in vivo, Glycine max
Description: as §1, §2

Measured: Plant response rating

Fc1ccc(-c2nc(OCC(F)(F)F)n(Cc3ccnc(C(F)(F)F)c3)n2)cc1 [Compound 30]
20: [4]; 62 g ai/ha | [4]; 125 g ai/ha | [12]; 31 g ai/ha | [14]; 31 g ai/ha | [16]; 31 g ai/ha | [19]; 31 g ai/ha
40: [2]; 31 g ai/ha
100: [3]; 62 g ai/ha | [3]; 125 g ai/ha | [3]; 250 g ai/ha | [5]; 62 g ai/ha | [5]; 125 g ai/ha | [5]; 250 g ai/ha | [7]; 125 g ai/ha | [7]; 250 g ai/ha | [10]; 125 g ai/ha | [11]; 250 g ai/ha | [13]; 31 g ai/ha | [17]; 250 g ai/ha
70: [1]; 31 g ai/ha | [1]; 62 g ai/ha | [1]; 250 g ai/ha | [5]; 31 g ai/ha | [15]; 125 g ai/ha | [19]; 62 g ai/ha
50: [6]; 31 g ai/ha | [15]; 31 g ai/ha | [17]; 62 g ai/ha
80: [14]; 62 g ai/ha | [20]; 62 g ai/ha
35: [12]; 125 g ai/ha | [16]; 250 g ai/ha
65: [2]; 62 g ai/ha | [6]; 62 g ai/ha | [11]; 31 g ai/ha | [11]; 62 g ai/ha | [18]; 125 g ai/ha
75: [1]; 125 g ai/ha | [6]; 125 g ai/ha | [15]; 250 g ai/ha | [18]; 250 g ai/ha | [19]; 125 g ai/ha | [20]; 31 g ai/ha
25: [18]; 62 g ai/ha
85: [2]; 125 g ai/ha | [20]; 125 g ai/ha
10: [4]; 31 g ai/ha | [18]; 31 g ai/ha
60: [15]; 62 g ai/ha
90: [3]; 31 g ai/ha | [6]; 250 g ai/ha | [7]; 31 g ai/ha | [14]; 125 g ai/ha | [17]; 125 g ai/ha
98: [7]; 62 g ai/ha | [10]; 62 g ai/ha | [11]; 125 g ai/ha | [13]; 250 g ai/ha | [14]; 250 g ai/ha
95: [2]; 250 g ai/ha | [8]; 31 g ai/ha | [8]; 62 g ai/ha | [8]; 125 g ai/ha | [8]; 250 g ai/ha | [9]; 31 g ai/ha | [9]; 62 g ai/ha | [9]; 125 g ai/ha | [9]; 250 g ai/ha | [10]; 31 g ai/ha | [10]; 250 g ai/ha | [13]; 62 g ai/ha | [13]; 125 g ai/ha | [19]; 250 g ai/ha | [20]; 250 g ai/ha
30: [4]; 250 g ai/ha | [12]; 62 g ai/ha | [12]; 250 g ai/ha | [16]; 62 g ai/ha | [16]; 125 g ai/ha | [17]; 31 g ai/ha
